# In patent US20250249025A1, “DRUG DELIVERY CARRIER UTILIZING PROPERTY OF D-ALLOSE BEING UPTAKEN BY CANCER CELL, DRUG DELIVERY METHOD, AND COMPOSITION FOR TREATING RENAL CELL CARCINOMA” (NATIONAL UNIVERSITY CORPORATION KAGAWA UNIVERSITY, priority 2019, published 2025):
# Columns and labels:
# [1] = tested on: human renal cell carcinoma cell line Caki-II; assay: Rare sugar uptake experiment, sugar content in disrupted cell suspension of Caki-II; type: cell-based
# Method: (§1) An uptake amount of a rare sugar, which had been added to a medium, into carcinoma cells was analyzed using the cell lines of three types of cancers. As the rare sugar, four kinds, that is, D-allose, D-allulose (D-psicose), L-allulose (L-psicose), and allitol were used, while D-glucose and fructose were used as a monosaccharide which was not a rare sugar.
# (§2) Cells of each of the cell lines were cultured in RPMI-1640 media and during culturing, six sugars were each added to the resulting media and cultured. After culturing, an amount of each sugar taken up into the cells was analyzed. The medium to which no sugar was added during culturing was used as a control.
# (§3) Used were human bladder carcinoma cell lines (RT112, 253), and J82), human prostatic carcinoma cell lines (LNCa, Du145, and PC-3), and human renal cell carcinoma cell lines (ACHN, Caki-I, and Caki-II).
# (§4) After cells were cultured in RPMI-1640 (2000 mg D-glucose/L) media, the above monosaccharides and rare sugars were added to the resulting media, respectively. Described specifically, they were following seven combinations: RPMI-1640 alone (control), RPMI-1640+D-glucose, RPMI-1640+L-allulose, RPMI-1640+D-allulose, RPMI-1640+D-fructose, RPMI-1640+D-allose, and RPMI-1640+D-allitol. The final concentration of the sugar in the medium was adjusted to 10 mM and no sugar was added in the control.
# (§5) Five-ml portions of a 3.0×10^4 cells/ml cell suspension prepared using RPMI-1640 were seeded in dishes having a diameter of 6 cm (1.5×10^5 cells/dish) and cultured for 24 hours in the RPMI-1640 medium containing 2000 mg/l of D-glucose as a nutrient source. Twenty-four hours later, the media were changed to the culture solutions containing the monosaccharides and rare sugars described above in 2), respectively, followed by culturing for 48 hours.
# (§6) After culturing for 48 hours, the attached human carcinoma cells were mechanically separated and collected in a Spitz tube together with the culture solution and floating cells. After the supernatant formed by centrifugation (4° C., 1200 rpm, and 5 minutes) was removed to obtain cell pellets alone, 5 ml of a phosphate buffer physiological saline (PBS) was added for the purpose of washing to obtain a cell suspension of the cell pellets. A gain, the resulting cell suspension was centrifuged at 4° C. and 1200 rpm for 5 minutes and the supernatant was removed. To the cell pellets after washing was added 1 ml of pure water to suspend them therein. Ultrasonic disruption (intensity: 40%, 30 seconds) was then performed and the monosaccharide in the disrupted cell suspension was labeled with ABEE, followed by analysis by HPLC. From the area thus obtained, the sugar content in the cells was determined using a calibration curve. With respect to the ketose, two peaks were found after labeling with ABEE so that the sugar content in the cells was determined from the calibration curves of both peaks.
# [2] = tested on: xenograft mouse model made using Caki-I; assay: Change of tumor volume by intraperitoneal D-allose injection, Caki-I xenograft mouse model; type: in vivo, mice
# Method: (§7) The experiment of the present example used two human renal cell carcinoma cell lines (Caki-I and ACHN). Each cell was cultured under the wet environment of 37° C. and 5% CO2 by using a RPMI-1640 culture solution (2000 mg D-glucose/L) containing a 10% fetal calf serum, a HEPES buffer, and penicillin-streptomycin.
# (§8) With respect to a renal cell carcinoma xenograft mouse model, a 1.0×10^5 cells/ml of a cell suspension was obtained by adjusting the cultured cells with a MEM culture solution and then 0.1 ml of the resulting suspension was injected into the femoral subcutaneous tissue of Female athymic nude mice (BALB/c-nu/nu, 6-week-old). After checking that the tumor volume was 200 mm^3 or more one week after the injection, the mice were provided for the experiment thereafter.
# (§9) The day when the tumor size of the renal cell carcinoma xenograft mouse models became 200 mm^3 or more was called day 0 and the intraperitoneal injection of a D-allose-containing solution was started from day 1. The solution injected is 0.4 mL of physiological saline or a solution obtained by dissolving 100 mg/kg or 400 mg/kg of D-allose in 0.4 mL physiological saline. The resulting solution was intraperitoneally injected into three groups of mice (Control, 100 mg/kg of D-allose, and 400 mg/kg of D-allose) once a day for 5 weeks in total. The body weight of the mice and the long and short diameters of the tumor were measured over time twice a week. It is to be noted that the tumor volume was obtained as a product of long diameter×short diameter×short diameter of the tumor×0.5. On day 35 after the intraperitoneal injection was started, the tumor as well as the liver and kidney were excised from the mice and provided for the experiment performed thereafter.
# [3] = tested on: human renal cell carcinoma cell line ACHN; assay: Rare sugar uptake experiment, sugar content in disrupted cell suspension of ACHN; type: cell-based
# Method: as §1, §2, §3, §4, §5, §6
# [4] = tested on: human prostate carcinoma cell line PC-3; assay: Rare sugar uptake experiment, sugar content in disrupted cell suspension of PC-3; type: cell-based
# Method: as §1, §2, §3, §4, §5, §6
# [5] = tested on: xenograft mouse model made using ACHN; assay: Change of tumor volume by intraperitoneal D-allose injection, ACHN xenograft mouse model; type: in vivo, mice; conditions: 400 mg/kg intraperitoneal once a day, on and after day 13, Mann-Whitney U test
# Method: as §7, §8
# The day when the tumor size of the renal cell carcinoma xenograft mouse models became 200 mm^3 or more was called day 0 and the intraperitoneal injection of a D-allose-containing solution was started from day 1. The solution injected is 0.4 mL of physiological saline or a solution obtained by dissolving 100 mg/kg or 400 mg/kg of D-allose in 0.4 mL physiological saline. […] The body weight of the mice and the long and short diameters of the tumor were measured over time twice a week. […]
# [6] = Fundamental safety tests (mutagenicity, biodegradability, oral acute toxicity, skin and eye primary irritation); conditions: conducted by a designated agency at the inventors' request
# Source text: With respect to the verification of the safety of D-allose necessary for the use of it as a pharmaceutical ingredient, it was expectable that it was safe because a rare sugar was a monosaccharide present in nature, though its amount was trace. A mutagenicity test, a biodegradability test, and three acute toxicity tests (oral acute toxicity test, skin primary irritation test, and eye primary irritation test) have been determined as the most fundamental safety tests. The present inventors asked a designated agency to conduct the fundamental safety tests of D-allose.
# [7] = tested on: human prostate carcinoma cell line Du145; assay: Rare sugar uptake experiment, sugar content in disrupted cell suspension of Du145; type: cell-based
# Method: as §1, §2, §3, §4, §5, §6
# [8] = Body weight in renal cell carcinoma xenograft mouse models; type: in vivo, mice; conditions: Control, 100 mg/kg and 400 mg/kg intraperitoneal once a day for 5 weeks; Mann-Whitney U test; FIG. 6
# Method: as §9
smiles,measurement,setting,value
O=C[C@H](O)[C@H](O)[C@H](O)[C@H](O)CO [D-allose],D-glucose content in cell,"[1]; Caki-II, named sugar added to RPMI-1640 at 10 mM, 48 hours, HPLC after ABEE labeling",3.4 µg
same,Content in cell of the added sugar,"[1]; human, 48 h, 10 mM",11.2 µg
same,Tumor volume versus Control group,"[2]; 100 mg/kg intraperitoneal once a day, on and after day 31, Mann-Whitney U test",significantly smaller than that of the Control group
same,Tumor volume versus tumor volume before administration,"[2]; 400 mg/kg intraperitoneal once a day, on and after day 16",significantly smaller than the tumor volume before administration
same,Tumor volume versus Control group,"[2]; 400 mg/kg intraperitoneal once a day, on and after day 16, Mann-Whitney U test",significantly smaller than that of the Control group
same,D-glucose content in cell,"[3]; ACHN, named sugar added to RPMI-1640 at 10 mM, 48 hours, HPLC after ABEE labeling",1.8 µg
same,Content in cell of the added sugar,"[3]; human, 48 h, 10 mM",11.2 µg
same,D-glucose content in cell,"[4]; PC-3, named sugar added to RPMI-1640 at 10 mM, 48 hours, HPLC after ABEE labeling",3.8 µg
same,Content in cell of the added sugar,"[4]; human, 48 h, 10 mM",7.5 µg
same,Tumor volume versus Control group,[5],significantly smaller than the Control group
same,Result of fundamental safety tests,[6],no safety problems
same,D-glucose content in cell,"[7]; Du145, named sugar added to RPMI-1640 at 10 mM, 48 hours, HPLC after ABEE labeling",16.2 µg
same,Content in cell of the added sugar,"[7]; human, 48 h, 10 mM",0.0 µg
same,"Mice weight, difference among three groups",[8],No significant difference
